These results are taken from ChEMBL document CHEMBL1155191, “Simple dihydrosphyngosine analogues with potent activity against MDR-Mycobacterium tuberculosis” (2009).

The structures appear in SMILES notation. Converted amounts (≈) assume the structure as drawn.

Common to all, as to assay type: functional
In experiment [1] the test system is Mycobacterium tuberculosis. The experiment can be described thus: Ratio of ethambutol MIC to compound MIC for Mycobacterium tuberculosis CIB99.
Experiment [2] deals with Mycobacterium tuberculosis. The experiment can be described thus: Antimycobacterial activity against Mycobacterium tuberculosis H37Rv ATCC 27294 after 5 to 7 days by microplate alamar blue assay.
Experiment [3] deals with Mycobacterium tuberculosis. As to the kind of experiment: Antimycobacterial activity against Mycobacterium tuberculosis CIB99 after 5 to 7 days by microplate alamar blue assay.
Experiment [4] deals with Mycobacterium tuberculosis. As to the kind of experiment: Ratio of ethambutol MIC to compound MIC for Mycobacterium tuberculosis H37Rv ATCC 27294.

With `CCCCCCCCCCCCCCC(COCc1ccccc1)NC(=O)CCCC(=O)O` (stereo not given), the Ratio was above 2.3 in experiment [1] and 0.14 in experiment [4]. In addition, the MIC in experiment [2] and in experiment [3] was 68 µM (≈ 31.4 µg/mL) in each case.
Regarding `CCCCCCCCCCCCCCC(N)COCc1ccccc1` (stereo not given), the values for the Ratio in experiment [1] and in experiment [4] were above 43 and 2.8, respectively. The MIC in experiment [2] and in experiment [3] was 3.6 µM (≈ 1.25 µg/mL) each time.
For the molecule `CCCCCCCCCCCCCCC(CNC(=O)CCCC(=O)O)NC(=O)OC(C)(C)C` (stereo not given), the Ratio in experiment [1] was above 1.2; in experiment [4], 0.07. Also, the MIC in experiment [2] and in experiment [3] was 133 µM (≈ 62.6 µg/mL) each time.
For the molecule `CCCCCCCCCCCCCCC(N)CN` (stereo not given), the Ratio in experiment [1] is on record as above 12; in experiment [4], 0.8. The MIC in experiment [2] and in experiment [3] was 12.6 µM (≈ 3.23 µg/mL) throughout.
Take `CCCCCCCCCCCCCCC(COCc1ccccc1)NC(=O)CCC(=O)O` (stereo not given): the Ratio is reported as above 1.1 in experiment [1] and 0.07 in experiment [4]. Further, the MIC in experiment [2] and in experiment [3] was 140 µM (≈ 62.7 µg/mL) in each case.
Turning to `CCCCCCCCCCCCCCC(CO)N(CC)CC` (stereo not given), the Ratio in experiment [1] is recorded as above 3.9; in experiment [4], 0.5. In addition, the results for the MIC in experiment [2] and in experiment [3] were 20 µM (≈ 6.27 µg/mL) and 40 µM (≈ 12.5 µg/mL), respectively.
In the case of `CC[C@@H](CO)NCCN[C@@H](CC)CO` [ETHAMBUTOL], the Ratio in experiment [1] and in experiment [4] was 1 in each case. In addition, the MIC is 9.9 µM (≈ 2.02 µg/mL) in experiment [2] and above 158 µM in experiment [3].
In the case of `CCCCCCCCCCCCCCC(COCc1ccccc1)N(CC)CC` (stereo not given), the Ratio is listed as above 50 in experiment [1] and 3.2 in experiment [4]. Moreover, the MIC in experiment [2] and in experiment [3] was 3.1 µM (≈ 1.25 µg/mL) in each case.
For `CCCCCCCCCCCCCCC(CN(CC)CC)NC(=O)OC(C)(C)C` (stereo not given), the Ratio is on record as above 10 in experiment [1] and 0.65 in experiment [4]. The MIC in experiment [2] and in experiment [3] was 15.2 µM (≈ 6.27 µg/mL) each time.
Regarding `CCCCCCCCCCCCCCC(COCc1ccccc1)NCC` (stereo not given), the Ratio in experiment [1] was above 9.5; in experiment [4], 0.6. Further, the MIC in experiment [2] and in experiment [3] was 16.6 µM (≈ 6.24 µg/mL) each time.
Turning to `CO[C@H]1/C=C/O[C@@]2(C)Oc3c(C)c(O)c4c(O)c(c(/C=N/N5CCN(C)CC5)c(O)c4c3C2=O)NC(=O)/C(C)=C\C=C\[C@H](C)[C@H](O)[C@@H](C)[C@@H](O)[C@@H](C)[C@H](OC(C)=O)[C@@H]1C` [RIFAMPIN], the Ratio turned out to be 65 in experiment [1] and 650 in experiment [4]. In addition, the MIC in experiment [2] was 0.152 µM (≈ 0.125 µg/mL); in experiment [3], above 2.43 µM.
In the case of `CCCCCCCCCCCCCCC(O)CNC1CCCCC1` (stereo not given), the Ratio in experiment [1] is above 14; in experiment [4], 0.3. Moreover, the MIC in experiment [2] amounted to 33 µM (≈ 11.2 µg/mL); in experiment [3], 11 µM (≈ 3.74 µg/mL).
Take `CCCCCCCCCCCCCCC(CN(CC(=O)OCC)CC(=O)OCC)NC(=O)OC(C)(C)C` (stereo not given): the Ratio is above 2.7 in experiment [1] and 0.17 in experiment [4]. For the same molecule, the MIC in experiment [2] and in experiment [3] was 59 µM (≈ 31.2 µg/mL) in each case.
Consider `CCCCCCCCCCCCCCC(CO)NC(=O)OC(C)(C)C` (stereo not given), for which the Ratio is recorded as above 5 in experiment [1] and 0.12 in experiment [4]. Moreover, the minimum inhibitory concentration (MIC) in experiment [2] and in experiment [3] was 84 µM (≈ 30 µg/mL) each time.
In the case of `CCCCCCCCCCCCCCC(CN)NC(=O)OC(C)(C)C` (stereo not given), the Ratio in experiment [1] is above 5.2; in experiment [4] it was 0.3. For the same molecule, the MIC in experiment [2] and in experiment [3] was 30 µM (≈ 10.7 µg/mL) each time.
With `CCCCCCCCCCCCCCC(O)CNCc1ccccc1` (stereo not given), the Ratio in experiment [1] is listed as above 2.2; in experiment [4], 0.28. Moreover, the MIC is 36 µM (≈ 12.5 µg/mL) in experiment [2] and 72 µM (≈ 25 µg/mL) in experiment [3].
Taken in the same sequence, the figures for `CCCCCCCCCCCCCCC(COCc1ccccc1)NCC(=O)OCC` (stereo not given) were above 2.2, 0.13, 72 µM (≈ 31.2 µg/mL) and 72 µM (≈ 31.2 µg/mL).
Taken in the same sequence, the figures for `CCCCCCCCCCCCCCC(N)CN(CC)CC` (stereo not given) were above 19, 2.5, 4 µM (≈ 1.25 µg/mL) and 8 µM (≈ 2.5 µg/mL).
Taken in the same sequence, the figures for `CCCCCCCCCCCCCCC(CNCC)NC(=O)OC(C)(C)C` (stereo not given) were above 4.9, 0.3, 32 µM (≈ 12.3 µg/mL) and 32 µM (≈ 12.3 µg/mL).
On to `CCCCCCCCCCCCCCC(N)CO` (stereo not given), for which the Ratio in experiment [1] was above 16; in experiment [4], 0.41. Also, the MIC was 24 µM (≈ 6.18 µg/mL) in experiment [2] and 49 µM (≈ 12.6 µg/mL) in experiment [3].
